Assay results as given in publication PMC11005723, “Development of Complementary Photo‐arginine/lysine to Promote Discovery of Arg/Lys hPTMs Interactomes” (Advanced Science, 2024).
Non-standard residues stand in square brackets, D forms with d. No end group written: not given here. *: point of attachment. Biotin = O=C1N[C@H]2[C@H](CS[C@H]2CCCCC(=O)*)N1; R(dz) = photo-arginine

Tested on: HEK293T nuclear lysates
Test: SILAC‐based pull‐down proteomics H4K5me1/H4K5 (probes 6/5)
Format: binding, human
Conditions: for C6 log (H4K5me/H4K5): run C6; for B6 log2 (H4K5me/H4K5): run B6

“probe 6: H4K5me peptide probe with photo‐arginine R(dz) and K(biotin) (SG[R(dz)]GK(Me)GGKGLGKGGK(Biotin))” was tested, and the “C6 log (H4K5me/H4K5)” value (protein P46109 CRKL) was 0.1336, the “B6 log2 (H4K5me/H4K5)” value (protein P49959 MRE11A) was 0.207 and the “C6 log (H4K5me/H4K5)” value (protein P49959 MRE11A) was 0.09642. For the same substance, the “B6 log2 (H4K5me/H4K5)” value (protein P54886 ALDH18A1) was 0.2574, the “C6 log (H4K5me/H4K5)” value (protein P54886 ALDH18A1) was 0.1226 and the “B6 log2 (H4K5me/H4K5)” value (protein P60842 EIF4A1) was 0.1721. The “C6 log (H4K5me/H4K5)” value (protein P60842 EIF4A1) was 0.03464, the “B6 log2 (H4K5me/H4K5)” value (protein P62140 PPP1CB) was 0.1941 and the “C6 log (H4K5me/H4K5)” value (protein P62140 PPP1CB) was 0.1375. For the same substance, the “B6 log2 (H4K5me/H4K5)” value (protein P78527 PRKDC) was 0.1659, the “C6 log (H4K5me/H4K5)” value (protein P78527 PRKDC) was 0.03578 and the “B6 log2 (H4K5me/H4K5)” value (protein P82979 SARNP) was 0.2593. The “C6 log (H4K5me/H4K5)” value (protein P82979 SARNP) was 0.2358, the “B6 log2 (H4K5me/H4K5)” value (protein P83916 CBX1) was 1.115 and the “C6 log (H4K5me/H4K5)” value (protein P83916 CBX1) was 1.115. For the same substance, the “B6 log2 (H4K5me/H4K5)” value (protein Q5JRI1 FUSIP1) was 0.2091, the “C6 log (H4K5me/H4K5)” value (protein Q5JRI1 FUSIP1) was 0.05687 and the “B6 log2 (H4K5me/H4K5)” value (protein Q5QPR4 CDC2L2) was 0.1546. The “C6 log (H4K5me/H4K5)” value (protein Q5QPR4 CDC2L2) was 0.218, the “B6 log2 (H4K5me/H4K5)” value (protein Q5SY16 NOL9) was 0.2457 and the “C6 log (H4K5me/H4K5)” value (protein Q5SY16 NOL9) was 0.6439. The “B6 log2 (H4K5me/H4K5)” value (protein Q5T760 SFRS11) was 0.2194, the “C6 log (H4K5me/H4K5)” value (protein Q5T760 SFRS11) was 0.159 and the “B6 log2 (H4K5me/H4K5)” value (protein Q5UIP0 RIF1) was 0.2471. For the same substance, the “C6 log (H4K5me/H4K5)” value (protein Q5UIP0 RIF1) was 0.213, the “B6 log2 (H4K5me/H4K5)” value (protein Q6PD62 CTR9) was 0.2151 and the “C6 log (H4K5me/H4K5)” value (protein Q6PD62 CTR9) was 0.2109. For the same substance, the “B6 log2 (H4K5me/H4K5)” value (protein Q6PJT7 ZC3H14) was 0.2381, the “C6 log (H4K5me/H4K5)” value (protein Q6PJT7 ZC3H14) was 0.2485 and the “B6 log2 (H4K5me/H4K5)” value (protein Q7Z6E9 RBBP6) was 0.1468. The “C6 log (H4K5me/H4K5)” value (protein Q7Z6E9 RBBP6) was 0.358, the “B6 log2 (H4K5me/H4K5)” value (protein Q8IX15 HOMEZ) was 0.2323 and the “C6 log (H4K5me/H4K5)” value (protein Q8IX15 HOMEZ) was 0.1198. For the same substance, the “B6 log2 (H4K5me/H4K5)” value (protein Q8N3X1 FNBP4) was 0.1827, the “C6 log (H4K5me/H4K5)” value (protein Q8N3X1 FNBP4) was 0.2005 and the “B6 log2 (H4K5me/H4K5)” value (protein Q8N5C6 SRBD1) was 0.1982. For the same substance, the “C6 log (H4K5me/H4K5)” value (protein Q8N5C6 SRBD1) was 0.09557, the “B6 log2 (H4K5me/H4K5)” value (protein Q8N163 KIAA1967) was 0.1537 and the “C6 log (H4K5me/H4K5)” value (protein Q8N163 KIAA1967) was 0.2348. The “B6 log2 (H4K5me/H4K5)” value (protein Q8TDD1 DDX54) was 0.1648, the “C6 log (H4K5me/H4K5)” value (protein Q8TDD1 DDX54) was 0.2394 and the “B6 log2 (H4K5me/H4K5)” value (protein Q9BVJ6 UTP14A) was 0.973. The “C6 log (H4K5me/H4K5)” value (protein Q9BVJ6 UTP14A) was 0.973, the “B6 log2 (H4K5me/H4K5)” value (protein Q9H2P0 ADNP) was 0.2412 and the “C6 log (H4K5me/H4K5)” value (protein Q9H2P0 ADNP) was -0.7035. The “B6 log2 (H4K5me/H4K5)” value (protein Q9H7L9 SUDS3) was 1.175, the “C6 log (H4K5me/H4K5)” value (protein Q9H7L9 SUDS3) was 1.175 and the “B6 log2 (H4K5me/H4K5)” value (protein Q9H9A6 LRRC40) was 0.1942. The “C6 log (H4K5me/H4K5)” value (protein Q9H9A6 LRRC40) was 0.05299, the “B6 log2 (H4K5me/H4K5)” value (protein Q9UBD5 ORC3) was 0.1586 and the “C6 log (H4K5me/H4K5)” value (protein Q9UBD5 ORC3) was -0.1103. For the same substance, the “B6 log2 (H4K5me/H4K5)” value (protein Q9UBW7 ZMYM2) was 0.2577, the “C6 log (H4K5me/H4K5)” value (protein Q9UBW7 ZMYM2) was 0.2945 and the “B6 log2 (H4K5me/H4K5)” value (protein Q9UHB6 LIMA1) was 0.1593. The “C6 log (H4K5me/H4K5)” value (protein Q9UHB6 LIMA1) was 0.1812, the “B6 log2 (H4K5me/H4K5)” value (protein Q9UQ80 PA2G4) was 0.1452 and the “C6 log (H4K5me/H4K5)” value (protein Q9UQ80 PA2G4) was -0.04803. For the same substance, the “B6 log2 (H4K5me/H4K5)” value (protein Q9UQR0 SCML2) was 0.7435, the “C6 log (H4K5me/H4K5)” value (protein Q9UQR0 SCML2) was 0.7435 and the “B6 log2 (H4K5me/H4K5)” value (protein Q9Y2L1 DIS3) was 0.1845. For the same substance, the “C6 log (H4K5me/H4K5)” value (protein Q9Y2L1 DIS3) was 0.1312, the “B6 log2 (H4K5me/H4K5)” value (protein Q9Y6C9 MTCH2) was 0.1565 and the “C6 log (H4K5me/H4K5)” value (protein Q9Y6C9 MTCH2) was -0.06142. The “B6 log2 (H4K5me/H4K5)” value (protein Q86VP6 CAND1) was 0.1606, the “C6 log (H4K5me/H4K5)” value (protein Q86VP6 CAND1) was 0.2263 and the “B6 log2 (H4K5me/H4K5)” value (protein Q00839 HNRNPU) was 0.2071. The “C6 log (H4K5me/H4K5)” value (protein Q00839 HNRNPU) was 0.1339, the “B6 log2 (H4K5me/H4K5)” value (protein Q01082 SPTBN1) was 0.2576 and the “C6 log (H4K5me/H4K5)” value (protein Q01082 SPTBN1) was 0.166. For the same substance, the “B6 log2 (H4K5me/H4K5)” value (protein Q06265 EXOSC9) was 0.1802, the “C6 log (H4K5me/H4K5)” value (protein Q06265 EXOSC9) was 0.08146 and the “B6 log2 (H4K5me/H4K5)” value (protein Q06330 RBPJ) was 0.1919. For the same substance, the “C6 log (H4K5me/H4K5)” value (protein Q06330 RBPJ) was -0.04363, the “B6 log2 (H4K5me/H4K5)” value (protein Q09161 NCBP1) was 0.2194 and the “C6 log (H4K5me/H4K5)” value (protein Q09161 NCBP1) was 0.2078. The “B6 log2 (H4K5me/H4K5)” value (protein Q12874 SF3A3) was 0.1922, the “C6 log (H4K5me/H4K5)” value (protein Q12874 SF3A3) was 0.1113 and the “B6 log2 (H4K5me/H4K5)” value (protein Q12888 TP53BP1) was 0.2132. The “C6 log (H4K5me/H4K5)” value (protein Q12888 TP53BP1) was 0.1756, the “B6 log2 (H4K5me/H4K5)” value (protein Q13185 CBX3) was 1.132 and the “C6 log (H4K5me/H4K5)” value (protein Q13185 CBX3) was 1.132. The “B6 log2 (H4K5me/H4K5)” value (protein Q13363 CTBP1) was 0.1923, the “C6 log (H4K5me/H4K5)” value (protein Q13363 CTBP1) was -0.1428 and the “B6 log2 (H4K5me/H4K5)” value (protein Q13416 ORC2) was 0.2451. The “C6 log (H4K5me/H4K5)” value (protein Q13416 ORC2) was 0.438, the “B6 log2 (H4K5me/H4K5)” value (protein Q14137 BOP1) was 0.2019 and the “C6 log (H4K5me/H4K5)” value (protein Q14137 BOP1) was -0.001199. The “B6 log2 (H4K5me/H4K5)” value (protein Q14498 RBM39) was 0.2408, the “C6 log (H4K5me/H4K5)” value (protein Q14498 RBM39) was 0.2735 and the “B6 log2 (H4K5me/H4K5)” value (protein Q14683 SMC1A) was 0.1556. The “C6 log (H4K5me/H4K5)” value (protein Q14683 SMC1A) was 0.1782, the “B6 log2 (H4K5me/H4K5)” value (protein Q15459 SF3A1) was 0.2515 and the “C6 log (H4K5me/H4K5)” value (protein Q15459 SF3A1) was 0.3427. For the same substance, the “B6 log2 (H4K5me/H4K5)” value (protein Q16555 DPYSL2) was 0.7641, the “C6 log (H4K5me/H4K5)” value (protein Q16555 DPYSL2) was 0.7641 and the “B6 log2 (H4K5me/H4K5)” value (protein Q16658 FSCN1) was 0.2138. The “C6 log (H4K5me/H4K5)” value (protein Q16658 FSCN1) was 0.727, the “B6 log2 (H4K5me/H4K5)” value (protein Q92688 ANP32B) was 0.1648 and the “C6 log (H4K5me/H4K5)” value (protein Q92688 ANP32B) was 0.135. The “B6 log2 (H4K5me/H4K5)” value (protein Q99613 EIF3C) was 0.2459 and the “C6 log (H4K5me/H4K5)” value (protein Q99613 EIF3C) was 0.04711.
